In patent publication US11759456B2, “Pharmaceutical composition” (KOWA COMPANY, LTD., priority 2017, dated 2023):

Assay: Laser Diffraction Measurement of Particle Size of primary particles
Assay type: physicochemical
Settings: pemafibrate used in Test Examples; Japanese Pharmacopoeia 17th Edition laser diffraction

d50 value (average particle diameter of primary particles): ≤ 100 μm
d90 value (average particle diameter of primary particles): ≤ 200 μm
SMILES: CC[C@@H](Oc1cccc(CN(CCCOc2ccc(OC)cc2)c2nc3ccccc3o2)c1)C(=O)O [pemafibrate, (2R)-2-[3-([1,3-Benzoxazol-2-yl[3-(4-methoxyphenoxy)propyl]amino]methyl)phenoxy]butanoic acid]
